Laboratory results from US20250042912A1, “NOVEL NON-FLUORINATED QUINOLONE COMPOUND AND USE THEREOF” (priority 2021, published 2025).
≈ marks a conversion by molar mass, not a printed value.

Tests used:
[1] = tested on: Staphylococcus epidermidis ATCC 35984; assay: Minimum inhibitory concentration (MIC) assay, Staphylococcus epidermidis ATCC 35984; format: cell-based; conditions: ATCC35984, aerobic culture 35+/-2°C, 16 to 20 hours, read with naked eyes
Description: (§1) On the day of the experiment, the compound in the flask was dissolved in 100% DMSO until the concentration of mother liquor was 0.4 mg/mL. If the mother liquor was not used on the same day, it was stored at −80° C. for future use.
(§2) The compound mother liquor and standard antibiotics were subjected to 2-fold gradient dilution with corresponding solvents on a 96-microwell plate (V-bottom) to obtain 100× working solutions (Well 1 to Well 7) in sequence. Among them, the concentrations of the compound were 400 μg/mL, 200 μg/mL, 100 μg/mL, 50 μg/mL, 25 μg/mL, 12.5 μg/mL, 6.25 μg/mL, and 3.125 μg/mL. 100% DMSO was used as growth control (Well 8). As such, the compound motherplate was obtained.
(§3) One day before the experiment, aerobic bacteria (Staphylococcus epidermidis) stored in a cryogenic tube at −80° C. were scribed on an MHA (Cation-adjusted Mueller-Hinton agar) plate. The aerobic bacteria were placed in a 35+/−2° C. incubator for 18-24 hours of aerobic cultivation.
(§4) On the day of the experiment, the plate was taken out, clones were picked from the plate and suspended in physiological saline. Then, the turbidity of the bacterial suspension (containing 1.0-2.0×10^8 CFU/mL) was adjusted to OD600=0.2 by a turbidity meter. Then, the adjusted bacterial suspension was diluted to an appropriate concentration with the assay culture medium: about 5×10^5 CFU/mL for aerobic bacteria, and about 1×10^6 CFU/mL for anaerobic bacteria. As such, the inoculating solution was obtained.
(§5) 2 μl of 2-fold series dilution of 100× high-concentration working solution was transferred from a compound mother plate (prepared in step 1) to a round-bottom 96-well plate, and then 198 μL of bacterial inoculating solution (prepared in step 2) was added to each well to obtain an MIC assay plate. Therefore, the final assay concentrations of the compound were 4 μg/mL, 2 μg/mL, 1 μg/mL, 0.5 μg/mL, 0.25 μg/mL, 0.125 μg/mL, 0.06 μg/mL and 0.03 μg/mL. The total volume of each well on the assay plate was 200 μL: containing 1% DMSO, about 5×10^5 CFU/mL of aerobic bacteria and about 1×10^6 CFU/mL of anaerobic bacteria.
(§6) All assay plates for aerobic bacteria were aerobically cultured at 35+/−2° C. for 16 to 20 hours, and all assay plates for anaerobic bacteria were anaerobically cultured in an anaerobic incubator at 35+/−2° C. for 48 hours.

[2] = tested on: Staphylococcus epidermidis ATCC 12228; assay: Minimum inhibitory concentration (MIC) assay, Staphylococcus epidermidis ATCC 12228; format: cell-based; conditions: ATCC12228, aerobic culture 35+/-2°C, 16 to 20 hours, read with naked eyes
Description: as §1, §2, §3, §4, §5, §6

[3] = tested on: Propionibacterium acnes ATCC 6919; assay: Acne model in mice: ear bacterial load; format: in vivo
Description: Experimental strain: Propionibacterium acnes ATCC 6919 (Beijing Biobw Biotechnology Co., Ltd.) Experimental animals: Balb/C mice (Zhejiang Vital River Laboratory Animal Technology Co., Ltd.) Balb/C mice were grouped and numbered, and adaptively fed for one week. On the day of modeling, Propionibacterium acnes was taken, and OD600 was measured using a microplate reader. BH1 culture medium was diluted to OD600=1 (about 5×10^8 CFU/mL), centrifuged to discard supernatant, and the remaining culture was diluted to 1×10^8 CFU/mL with PBS. Once the molding began, the mice were anesthetized with a small animal anesthesia machine, the air flow and isoflurane content of the anesthesia machine were adjusted, and the mice were placed in an anesthesia induction chamber for anesthesia induction. After there were no obvious signs of activity, the mice were taken out and their toes were clamped with tweezers or hemostatic forceps for toe pinching reaction testing, if there was no retraction pain response, the surgery could be performed. The anesthetized mice were placed on a mice plate and fixed, the air flow or isoflurane content was adjusted to maintain anesthesia (isoflurane anesthesia induction content of 3% to 4%, anesthesia maintenance content of 1% to 2%, and air flow rate of 300 mL/min to 500 mL/min). […]

Compound: CN(C)c1cc2c(cn1)-c1ccc3c(=O)c(C(=O)O)cn(C4CC4)c3c1COC2 [Compound 6]
- MIC [1]: 0.06 µg/mL (≈ 0.153 µM)
- MIC [2]: 0.06 µg/mL (≈ 0.153 µM)
- Ear bacterial load Log10 CFU/Ear Mean ± SD ([3]; Balb/C mice, left ear homogenate, 48 hours after injection of Propionibacterium acnes, 15 μL applied at 4, 20, 28, 44 hours, drugs as hydrochloride): 5.53 ± 0.10 Log10 CFU/Ear
- bacterial loads in the left ears of mice after treatment ([3]; compared with acne model group, p<0.001, in words): significantly decreased
